Paper PMC9688344, “[^225Ac]Ac-SibuDAB for Targeted Alpha Therapy of Prostate Cancer: Preclinical Evaluation and Comparison with [^225Ac]Ac-PSMA-617” (Cancers, 2022)

System: human serum albumin
Test: Albumin binding, ultrafiltration assay in human blood plasma
Type: in vitro ADME
Method: The logD values, cell uptake and internalization as well as PSMA-binding affinities (KD values) of [^225Ac]Ac-SibuDAB and [^225Ac]Ac-PSMA-617 (~50 kBq/nmol) were determined according to previously reported protocols (Supplementary Material: Sections S3–S5). Relative albumin-binding affinities were determined using an ultrafiltration assay according to an adapted version of a recently published protocol (Supplementary Material: Section S6).
Table S1. PSMA-binding affinity expressed as KD values determined for SibuDAB and PSMA-617 labeled with actinium-225 or lutetium-177.
Radioligand KD Value [nM] 95% Confidence interval n […]
Purpose: The affinity of [225Ac]Ac-SibuDAB to serum albumin in mouse and human blood plasma was assessed and compared to that of [177Lu]Lu-SibuDAB to determine the impact of the radionuclide on the albumin-binding properties of SibuDAB.
Methods: Relative albumin-binding affinities were determined using an ultrafiltra-tion assay according to a slightly adapted version of a published protocol. The concen-tration of mouse serum albumin (MSA) and human serum albumin (HSA) in samples of mouse and human plasma, respectively, was determined using a DRI-CHEM Analyzer (FUJIFILM, 4000i). […] The activity in the retained protein fraction (A bound), in the filtrate (Afiltrate) and in the filter unit (Afilter) were measured separately in a γ-counter (Perkin Elmer Wallac Wizard 1480). […]

`CC(C)Cc1ccc(C(C)C(=O)NC(CCN)C(=O)NCCCCC(NC(=O)CN2CCN(CC(=O)[O-])CCN(CC(=O)[O-])CCN(CC(=O)[O-])CC2)C(=O)NCC2CCC(C(=O)NC(Cc3ccc4ccccc4c3)C(=O)NCCCCC(NC(=O)NC(CCC(=O)O)C(=O)O)C(=O)O)CC2)cc1.[225Ac+3]` (stereo not shown) [[^225Ac]Ac-SibuDAB] was tested, and the “relative albumin-binding affinity, higher than for [177Lu]Lu-SibuDAB” value was 1.4 fold.
